Laboratory results from publication PMC11324517 (Nature, 2024).
Values joined by “and” are separate entries in the source; they are usually repeats but may differ in a detail not shown here. Equal entries are not always repeated.

Key:
∆-hDAT [1] = biological target: T1, ∆-hDAT (Homo sapiens, UniProt Q01959, I248Y); assay: Scintillation proximity assay (SPA), [3H]WIN35428 binding to purified His-tagged ∆-hDAT; parameters: expressed in transfected cells; host or cells: HEK293 GnTI- cells, BacMam baculovirus transduction; settings: β-CFT 0.617 nM, background not subtracted
Experimental: The various buffer systems were unchanged. YSi-Cu SPA beads at 1 mg ml^−1 were added to ∆-hDAT (30 nM) in SEC buffer (0.02% digitonin, 0.002% CHS, 50 mM HEPES pH 7.8, 200 mM NaCl, 25 µM POPC and 4 µM MRS7292). [^3H]-WIN35428 (82.8 Ci mmol^−1) in 20 mM HEPES pH 7.8 and 100 mM NaCl was used at concentration points ranging from 0 to 150 nM. For background measurement, 100 µM of GBR12909 was added to the assay buffer. Reactants were added to a 96-well isoplate, briefly mixed on a shaker at room temperature, and [^3H] counts were recorded using a MicroBeta2. […] Background subtracted counts were plotted and analysed by a single-site binding model via nonlinear regression analysis in GraphPad Prism v7.05.

∆-hDAT T211E = biological target: T2, ∆-hDAT T211E (Homo sapiens, UniProt Q01959, I248Y/T211E); assay: Zn2+ inhibition of [3H]dopamine uptake (IC50), T211E mutant; type: cell-based; settings: for T211E total: [3H]dopamine uptake raw counts, Fig 3c, triplicates, replicates 1-3
T2 construct: expressed in transfected cells; host or cells: HEK293 GnTI- cells, BacMam baculovirus transduction
Experimental: (§1) For IC50 measurements of Zn^2+, uptake assays were carried out as described for MRS7292 with the following alterations. The uptake buffer contained EPPS at pH 8.5 in place of HEPES. Cells were washed once with uptake buffer containing 1 mM ethylenediaminetetraacetic acid (EDTA) to chelate ambient Zn^2+ from the cell growth medium, followed by second wash without EDTA. Cells were then incubated for 15 min in uptake buffers containing 0.3–300 µM added Zn^2+ for ∆-hDAT, 0.1–100 µM added Zn^2+ for T211H, and 0.03–30 µM added Zn^2+ for T211E. […] The IC50 of Zn^2+ for the T211E mutant was also measured at pH 7.5 to obtain a more complete inhibition curve.

hDAT D191N = settings: D191 mutated to asparagine; cited from earlier work
∆-hDAT [2] = biological target: T1, ∆-hDAT; assay: Zn2+ inhibition of [3H]dopamine uptake (IC50), ∆-hDAT; type: cell-based; parameters: expressed in transfected cells; host or cells: HEK293 GnTI- cells, BacMam baculovirus transduction; settings: [3H]dopamine uptake raw counts, Fig 3c, triplicates, replicates 1-3
Experimental: as §1

∆-hDAT T211H = biological target: T3, ∆-hDAT T211H (Homo sapiens, UniProt Q01959, I248Y/T211H); assay: Zn2+ inhibition of [3H]dopamine uptake (IC50), T211H mutant; type: cell-based; settings: for T211H total: [3H]dopamine uptake raw counts, Fig 3c, triplicates, replicates 1-3
T3 construct: expressed in transfected cells; host or cells: HEK293 GnTI- cells, BacMam baculovirus transduction
Experimental: as §1

full-length hDAT = full-length hDAT (Homo sapiens, UniProt Q01959); settings: full-length hDAT, HEK293 GnTI− cells, mean ± s.d., n = 3
Experimental: (§2) HEK293 GnTI^− cells were transduced with Δ-hDAT and full-length hDAT P2 viruses, propagated in SF9 cells using standard methods as described in ‘Protein expression and purification’, at a cell density of 2.5 – 3.0 × 10^6 cells per ml, followed by incubation at 37 °C for 6 h. After 6 h, sodium butyrate was added to a final concentration of 10 mM, and the cells were transferred to 30 °C with 8% CO2 for 6 h. The transduced cells were seeded into 96-well poly-D-lysine coated Isoplates (Perkin Elmer) at a density of 100,000 cells per well. The plates were then incubated at 30 °C for 12–16 h before the uptake assay was initiated. The cells were initially washed with 37 °C uptake assay buffer composed of 25 mM HEPES pH 7.4, 120 mM NaCl, 5 mM KCl, 1.2 mM CaCl2, 1.2 mM MgSO4, 5 mM D-glucose, 1 mM ascorbic acid, and 1 µM Ro 41-0960, followed by incubation in 50 µl of the same buffer for 10 min. Replicates with 10 µM of GBR12909 in the uptake assay buffer were used to measure background. […] The uptake reaction was stopped by adding 100 µl of chilled inhibition buffer, uptake assay buffer supplemented with 2.5 µM GBR12909. Two consecutive washes with 100 µl of inhibition buffer were carried out, followed by resuspension of cells in 100 µl of 1% Triton X-100. Finally, 100 µl of liquid scintillation cocktail was added to each well and [^3H] counts were measured using a MicroBeta2 (Perkin Elmer). Background counts from three replicates were averaged and subtracted from total counts.

∆-hDAT [3] = biological target: T1, ∆-hDAT; settings: ∆-hDAT, HEK293 GnTI− cells, mean ± s.d., n = 3
Experimental: as §2

hDAT W84C = settings: W84C mutant; cited from earlier work
[4] = substrate: NCCc1ccc(O)c(O)c1; assay: cells, lysate or membranes; settings: HEK293 GnTI− cells, Michaelis–Menten model, mean ± s.d., n = 3, pH 7.4

T2 sequence (Q01959 57-620 T211E/I248Y limits assumed): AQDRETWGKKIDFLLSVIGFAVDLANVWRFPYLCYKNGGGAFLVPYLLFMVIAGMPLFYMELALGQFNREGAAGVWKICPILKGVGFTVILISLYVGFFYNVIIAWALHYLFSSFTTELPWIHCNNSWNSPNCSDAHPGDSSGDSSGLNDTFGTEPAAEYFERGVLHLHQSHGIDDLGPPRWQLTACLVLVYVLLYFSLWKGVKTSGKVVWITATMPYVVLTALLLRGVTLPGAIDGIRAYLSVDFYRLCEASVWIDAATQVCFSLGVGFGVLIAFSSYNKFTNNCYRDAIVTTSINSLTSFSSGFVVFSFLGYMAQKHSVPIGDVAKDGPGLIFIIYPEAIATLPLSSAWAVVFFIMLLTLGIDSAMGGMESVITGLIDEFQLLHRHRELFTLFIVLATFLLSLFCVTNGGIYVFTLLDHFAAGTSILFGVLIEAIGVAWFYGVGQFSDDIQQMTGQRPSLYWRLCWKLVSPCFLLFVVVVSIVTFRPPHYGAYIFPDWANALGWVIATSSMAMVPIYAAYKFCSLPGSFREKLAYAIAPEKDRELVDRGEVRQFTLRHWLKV
T3 sequence (Q01959 57-620 T211H/I248Y limits assumed): as the sequence (Q01959 57-620 T211E/I248Y limits assumed) above, with E155H counted along it

Molecule: COC(=O)C1C(c2ccc(F)cc2)CC2CCC1N2C (single isomer, unassigned; (-)) [β-CFT, (–)-2-β-carbomethoxy-3-β-(4-fluorophenyl)tropane]
- SPA total counts, binding to purified ∆-hDAT (∆-hDAT [1]): 204 and 169 and 192 and 177 and 171 and 174 and 189 and 179

Molecule: [Zn+2] [Zn^2+]
- T211E total (∆-hDAT T211E; Added Zn2+ 0.0457 µM): 1043 and 1084 and 946 and 1214 and 1350 and 1252 and 1437 and 1516 and 1325
- T211E total (∆-hDAT T211E; Added Zn2+ 0.14 µM): 623 and 609 and 563 and 777 and 766 and 728 and 853 and 1009 and 867
- T211E total (∆-hDAT T211E; Added Zn2+ 0.41 µM): 635 and 450 and 501 and 372 (2×) and 389 and 527 and 516 and 677
- T211E total (∆-hDAT T211E; Added Zn2+ 1.23 µM): 459 and 447 and 440 and 286 and 276 and 244 and 481 and 403 (2×)
- T211E total (∆-hDAT T211E; Added Zn2+ 3.70 µM): 335 and 268 and 302 and 159 and 217 and 381 and 284 and 246 and 231
- T211E total (∆-hDAT T211E; Added Zn2+ 11.11 µM): 323 and 314 and 345 and 238 and 249 and 229 and 277 and 278
- T211E total (∆-hDAT T211E; Added Zn2+ 33.33 µM): 416 and 290 and 362 and 261 and 242 and 215 and 342 and 313 and 301
- IC50 of Zn2+ lower than that of ∆-hDAT (∆-hDAT T211E; T211E mutant, [3H]dopamine uptake, pH 8.5): around 100 fold
- decrease in apparent Zn2+ affinity (hDAT D191N): apparent threefold decrease
- Δ-hDAT total counts (∆-hDAT [2]; Added Zn2+ 0.41 µM): 3458 counts and 3089 counts and 3357 counts and 3017 counts and 2960 counts and 2624 counts and 3155 counts and 3308 counts and 3482 counts
- Δ-hDAT total counts (∆-hDAT [2]; Added Zn2+ 1.23 µM): 3105 counts and 3118 counts and 3175 counts and 2225 counts and 1943 counts and 2195 counts and 3616 counts and 3027 counts and 2892 counts
- Δ-hDAT total counts (∆-hDAT [2]; Added Zn2+ 3.70 µM): 1979 counts and 2178 counts and 2228 counts and 2099 counts and 1947 counts and 1866 counts and 2321 counts and 2149 counts and 1943 counts
- Δ-hDAT total counts (∆-hDAT [2]; Added Zn2+ 11.11 µM): 2029 counts and 1818 counts and 1787 counts and 1695 counts and 1560 counts and 1477 counts and 1550 counts and 1703 counts and 2026 counts
- Δ-hDAT total counts (∆-hDAT [2]; Added Zn2+ 33.33 µM): 1238 counts and 1123 counts and 1240 counts and 1063 counts and 1147 counts and 906 counts and 1573 counts and 1503 counts and 1606 counts
- Δ-hDAT total counts (∆-hDAT [2]; Added Zn2+ 100.00 µM): 771 counts and 681 counts and 793 counts and 660 counts and 598 counts and 682 counts and 1221 counts and 1015 counts and 885 counts
- Δ-hDAT total counts (∆-hDAT [2]; Added Zn2+ 300.00 µM): 402 counts and 451 counts and 435 counts and 386 counts and 349 counts and 353 counts and 418 counts and 427 counts
- T211H total (∆-hDAT T211H; Added Zn2+ 0.14 µM): 2307 and 2405 and 2334 and 1111 and 679 and 946 and 2428 and 2969 and 2868
- T211H total (∆-hDAT T211H; Added Zn2+ 0.41 µM): 1917 and 1650 and 1702 and 922 and 890 and 993 and 2213 and 1804 and 1794
- T211H total (∆-hDAT T211H; Added Zn2+ 1.23 µM): 1146 and 1389 and 1404 and 571 and 540 and 534 and 1806 and 1414 and 1274
- T211H total (∆-hDAT T211H; Added Zn2+ 3.70 µM): 951 and 892 and 809 and 316 and 317 and 411 and 837 and 824 and 1109
- T211H total (∆-hDAT T211H; Added Zn2+ 11.11 µM): 810 and 577 and 717 and 230 and 281 and 267 and 486 and 515 and 477
- T211H total (∆-hDAT T211H; Added Zn2+ 33.33 µM): 528 and 524 and 546 and 246 and 210 and 198 and 441 and 462 and 475
- T211H total (∆-hDAT T211H; Added Zn2+ 100.00 µM): 419 and 394 and 350 and 158 and 145 and 163 and 252 and 226 and 267
- IC50 of Zn2+ lower than that of ∆-hDAT (∆-hDAT T211H; T211H mutant, [3H]dopamine uptake, pH 8.5): ~20 fold

Molecule: NCCc1ccc(O)c(O)c1 [[^3H]dopamine, dopamine]
- reaction rate at infinite substrate concentration (Vmax) for [3H]dopamine uptake (full-length hDAT): 190.9 ± 10.7 fmol min^−1 per well
- reaction rate at infinite substrate concentration (Vmax) for [3H]dopamine uptake (∆-hDAT [3]): 342.8 ± 11.7 fmol min^−1 per well

Molecule: CCc1ccc2[nH]c3nc(SCCNS(=O)(=O)c4ccc(NC(C)=O)cc4)nnc3c2c1 [KM822]
- effect of mutation on potency of KM822 (hDAT W84C): increases the potency

B1: ∆-hDAT (Homo sapiens; I248Y) (protein)
chain: AQDRETWGKKIDFLLSVIGFAVDLANVWRFPYLCYKNGGGAFLVPYLLFMVIAGMPLFYMELALGQFNREGAAGVWKICPILKGVGFTVILISLYVGFFYNVIIAWALHYLFSSFTTELPWIHCNNSWNSPNCSDAHPGDSSGDSSGLNDTFGTTPAAEYFERGVLHLHQSHGIDDLGPPRWQLTACLVLVYVLLYFSLWKGVKTSGKVVWITATMPYVVLTALLLRGVTLPGAIDGIRAYLSVDFYRLCEASVWIDAATQVCFSLGVGFGVLIAFSSYNKFTNNCYRDAIVTTSINSLTSFSSGFVVFSFLGYMAQKHSVPIGDVAKDGPGLIFIIYPEAIATLPLSSAWAVVFFIMLLTLGIDSAMGGMESVITGLIDEFQLLHRHRELFTLFIVLATFLLSLFCVTNGGIYVFTLLDHFAAGTSILFGVLIEAIGVAWFYGVGQFSDDIQQMTGQRPSLYWRLCWKLVSPCFLLFVVVVSIVTFRPPHYGAYIFPDWANALGWVIATSSMAMVPIYAAYKFCSLPGSFREKLAYAIAPEKDRELVDRGEVRQFTLRHWLKV
- Km ([4]; other: ∆-hDAT): 0.55 ± 0.07 µM

B2: full-length hDAT (Homo sapiens) (protein)
chain: MSKSKCSVGLMSSVVAPAKEPNAVGPKEVELILVKEQNGVQLTSSTLTNPRQSPVEAQDRETWGKKIDFLLSVIGFAVDLANVWRFPYLCYKNGGGAFLVPYLLFMVIAGMPLFYMELALGQFNREGAAGVWKICPILKGVGFTVILISLYVGFFYNVIIAWALHYLFSSFTTELPWIHCNNSWNSPNCSDAHPGDSSGDSSGLNDTFGTTPAAEYFERGVLHLHQSHGIDDLGPPRWQLTACLVLVIVLLYFSLWKGVKTSGKVVWITATMPYVVLTALLLRGVTLPGAIDGIRAYLSVDFYRLCEASVWIDAATQVCFSLGVGFGVLIAFSSYNKFTNNCYRDAIVTTSINSLTSFSSGFVVFSFLGYMAQKHSVPIGDVAKDGPGLIFIIYPEAIATLPLSSAWAVVFFIMLLTLGIDSAMGGMESVITGLIDEFQLLHRHRELFTLFIVLATFLLSLFCVTNGGIYVFTLLDHFAAGTSILFGVLIEAIGVAWFYGVGQFSDDIQQMTGQRPSLYWRLCWKLVSPCFLLFVVVVSIVTFRPPHYGAYIFPDWANALGWVIATSSMAMVPIYAAYKFCSLPGSFREKLAYAIAPEKDRELVDRGEVRQFTLRHWLKV
- Km ([4]; other: full-length hDAT): 0.56 ± 0.13 µM
